Measured values: ChEMBL document CHEMBL4765389, “Antimicrobial and anti-inflammatory activities of short dodecapeptides derived from duck cathelicidin: Plausible mechanism of bactericidal action and endotoxin neutralization” (Eur J Med Chem, 2020)
Active and inactive are the calls of the source. The rule behind the calls is not given here.

Experiments:
[1] = tested on: Lipopolysaccharide (LPS); experiment: Displacement of BODIPY-TR cadaverine from Escherichia coli O111:B4 LPS at 10 uM measured for 100 sec by spectrofluorometry relative to control
[2] = tested on: Escherichia coli; experiment: Antibacterial activity against Escherichia coli KCTC 1682 assessed as reduction in bacterial growth incubated for 24 hrs in presence of 4.5 mM KCl by CLSI based broth dilution method; type: functional; conditions: read-out: MIC100
[3] = tested on: Escherichia coli; experiment: Antibacterial activity against Escherichia coli KCTC 1682 assessed as reduction in bacterial growth incubated for 24 hrs in presence of 20 % serum by CLSI based broth dilution method; type: functional; conditions: read-out: MIC100
[4] = Antibacterial activity against multidrug-resistant Pseudomonas aeruginosa CCARM 2095 assessed as fractional inhibitory concentration index incubated for 24 hrs in presence of ciprofloxacin by CLSI based broth dilution method; type: functional
[5] = tested on: Cell membrane; experiment: Induction of cell membrane permeability in Staphylococcus aureus KCTC 1621 assessed as cytoplasmic membrane depolarization at 2 times MIC by SYTOX dye based fluorescence assay; type: subcellular
[6] = tested on: Staphylococcus aureus; experiment: Antibacterial activity against methicillin-resistant Staphylococcus aureus CCARM 3090 assessed as fractional inhibitory concentration incubated for 24 hrs in presence of chloramphenicol by CLSI based broth dilution method; type: functional
[7] = tested on: Staphylococcus aureus; experiment: Antibacterial activity against methicillin-resistant Staphylococcus aureus CCARM 3090 assessed as reduction in bacterial growth incubated for 24 hrs in presence of chloramphenicol by CLSI based broth dilution method; type: functional; conditions: read-out: MIC100
[8] = tested on: Staphylococcus aureus; experiment: Antibacterial activity against Staphylococcus aureus KCTC 1621 assessed as reduction in bacterial growth incubated for 24 hrs in presence of 4 uM FeCl3 by CLSI based broth dilution method; type: functional; conditions: read-out: MIC100
[9] = tested on: Staphylococcus aureus; experiment: Antibacterial activity against Staphylococcus aureus KCTC 1621 assessed as reduction in bacterial growth incubated for 24 hrs in presence of 20 % serum by CLSI based broth dilution method; type: functional; conditions: read-out: MIC100
[10] = Antibacterial activity against multidrug-resistant Pseudomonas aeruginosa CCARM 2095 assessed as fractional inhibitory concentration index incubated for 24 hrs in presence of chloramphenicol by CLSI based broth dilution method; type: functional
[11] = tested on: Escherichia coli; experiment: Antibacterial activity against Escherichia coli KCTC 1682 assessed as reduction in bacterial growth incubated for 24 hrs in presence of 4 uM FeCl3 by CLSI based broth dilution method; type: functional; conditions: read-out: MIC100
[12] = tested on: Escherichia coli; experiment: Antibacterial activity against Escherichia coli KCTC 1682 assessed as reduction in bacterial growth incubated for 24 hrs in presence of 6 uM NH4Cl by CLSI based broth dilution method; type: functional; conditions: read-out: MIC100
[13] = tested on: Staphylococcus aureus; experiment: Antibacterial activity against Staphylococcus aureus KCTC 1621 assessed as reduction in bacterial growth incubated for 24 hrs in presence of 1 mM MgCl2 by CLSI based broth dilution method; type: functional; conditions: read-out: MIC100
[14] = tested on: Staphylococcus aureus; experiment: Antibacterial activity against Staphylococcus aureus KCTC 1621 assessed as reduction in bacterial growth incubated for 24 hrs in presence of 2.5 mM CaCl2 by CLSI based broth dilution method; type: functional; conditions: read-out: MIC100
[15] = tested on: Staphylococcus aureus; experiment: Antibacterial activity against methicillin-resistant Staphylococcus aureus CCARM 3090 assessed as fractional inhibitory concentration index incubated for 24 hrs in presence of oxacillin by CLSI based broth dilution method; type: functional
[16] = Antibacterial activity against multidrug-resistant Pseudomonas aeruginosa CCARM 2095 assessed as reduction in bacterial growth incubated for 24 hrs in presence of oxacillin by CLSI based broth dilution method; type: functional; conditions: read-out: MIC100
[17] = Antibacterial activity against multidrug-resistant Pseudomonas aeruginosa CCARM 2095 assessed as fractional inhibitory concentration incubated for 24 hrs in presence of oxacillin by CLSI based broth dilution method; type: functional
[18] = tested on: Lipopolysaccharide (LPS); experiment: Inhibition of Escherichia coli O111:B4 LPS aggregation assessed as increase in FITC-LPS dissociation by spectrofluorometry
[19] = tested on: RAW264.7; experiment: Antiinflammatory activity in mouse RAW264.7 cells assessed as suppression of LPS binding by measuring LPS-FITC aggregation at 10 uM pretreated with LPS for 1 hr followed by compound addition and measured after 30 mins by flowcytometry analysis (reference value: 67.93 %); type: functional; conditions: 0.5 h
[20] = tested on: Escherichia coli; experiment: Antibacterial activity against Escherichia coli KCTC 1682 assessed as reduction in bacterial growth incubated for 24 hrs in presence of 1 mM MgCl2 by CLSI based broth dilution method; type: functional; conditions: read-out: MIC100
[21] = tested on: Escherichia coli; experiment: Antibacterial activity against Escherichia coli KCTC 1682 assessed as reduction in bacterial growth incubated for 24 hrs in presence of 150 mM NaCl by CLSI based broth dilution method; type: functional; conditions: read-out: MIC100
[22] = tested on: Staphylococcus aureus; experiment: Antibacterial activity against methicillin-resistant Staphylococcus aureus CCARM 3090 assessed as fractional inhibitory concentration incubated for 24 hrs in presence of ciprofloxacin by CLSI based broth dilution method; type: functional
[23] = Antibacterial activity against multidrug-resistant Pseudomonas aeruginosa CCARM 2095 assessed as fractional inhibitory concentration index incubated for 24 hrs in presence of oxacillin by CLSI based broth dilution method; type: functional
[24] = tested on: Cell membrane; experiment: Induction of cell membrane permeability in Staphylococcus aureus KCTC 1621 assessed as cytoplasmic membrane depolarization at 2 times MIC by DiSC3-5 dye based spectrofluorometry; type: subcellular
[25] = tested on: Escherichia coli; experiment: Antibacterial activity against Escherichia coli KCTC 1682 assessed as reduction in bacterial growth incubated for 24 hrs in presence of 2.5 mM CaCl2 by CLSI based broth dilution method; type: functional; conditions: read-out: MIC100
[26] = tested on: Staphylococcus aureus; experiment: Antibacterial activity against methicillin-resistant Staphylococcus aureus CCARM 3090 assessed as reduction in bacterial growth incubated for 24 hrs in presence of ciprofloxacin by CLSI based broth dilution method; type: functional; conditions: read-out: MIC100
[27] = tested on: Staphylococcus aureus; experiment: Antibacterial activity against methicillin-resistant Staphylococcus aureus CCARM 3090 assessed as fractional inhibitory concentration index incubated for 24 hrs in presence of chloramphenicol by CLSI based broth dilution method; type: functional
[28] = tested on: Cell membrane; experiment: Induction of cell membrane permeability in Escherichia coli KCTC 1682 assessed as cytoplasmic membrane […] fluorescent signals at 2 times MIC measured after 1 hr by propidium iodide dye based flow cytometry analysis (reference value: 9.8 %); type: subcellular
[29] = tested on: Staphylococcus aureus; experiment: Antibacterial activity against methicillin-resistant Staphylococcus aureus CCARM 3090 assessed as fractional inhibitory concentration incubated for 24 hrs in presence of oxacillin by CLSI based broth dilution method; type: functional
[30] = tested on: RAW264.7; experiment: Antiinflammatory activity against mouse RAW264.7 cells assessed as reduction in LPS-induced TNFalpha mRNA expression at 10 uM incubated for 3 hrs by qRT-PCR analysis; type: functional, cell-based
[31] = tested on: Staphylococcus aureus; experiment: Antibacterial activity against methicillin-resistant Staphylococcus aureus CCARM 3090 assessed as fractional inhibitory concentration index incubated for 24 hrs in presence of ciprofloxacin by CLSI based broth dilution method; type: functional
[32] = tested on: Staphylococcus aureus; experiment: Antibacterial activity against methicillin-resistant Staphylococcus aureus CCARM 3090 assessed as reduction in bacterial growth incubated for 24 hrs in presence of oxacillin by CLSI based broth dilution method; type: functional; conditions: read-out: MIC100
[33] = tested on: Staphylococcus aureus; experiment: Antibacterial activity against Staphylococcus aureus KCTC 1621 assessed as reduction in bacterial growth incubated for 24 hrs in presence of 4.5 mM KCl by CLSI based broth dilution method; type: functional; conditions: read-out: MIC100
[34] = tested on: Cell membrane; experiment: Induction of cell membrane permeability in Escherichia coli KCTC 1682 assessed as […] at 2 times MIC by ONPG dye based spectrophotometry; type: subcellular
[35] = tested on: Staphylococcus aureus; experiment: Antibacterial activity against Staphylococcus aureus KCTC 1621 assessed as reduction in bacterial growth incubated for 24 hrs in presence of 150 mM NaCl by CLSI based broth dilution method; type: functional; conditions: read-out: MIC100
[36] = tested on: Staphylococcus aureus; experiment: Antibacterial activity against Staphylococcus aureus KCTC 1621 assessed as reduction in bacterial growth incubated for 24 hrs in presence of 6 uM NH4Cl by CLSI based broth dilution method; type: functional; conditions: read-out: MIC100
[37] = Antibacterial activity against multidrug-resistant Pseudomonas aeruginosa CCARM 2095 assessed as reduction in bacterial growth incubated for 24 hrs in presence of chloramphenicol by CLSI based broth dilution method; type: functional; conditions: read-out: MIC100
[38] = Antibacterial activity against multidrug-resistant Pseudomonas aeruginosa CCARM 2095 assessed as fractional inhibitory concentration incubated for 24 hrs in presence of chloramphenicol by CLSI based broth dilution method; type: functional
[39] = tested on: RAW264.7; experiment: Antiinflammatory activity against mouse RAW264.7 cells assessed as reduction in LPS-induced iNOS mRNA expression at 5 uM incubated for 6 hrs by qRT-PCR analysis; type: functional, cell-based
[40] = Antibacterial activity against multidrug-resistant Pseudomonas aeruginosa CCARM 2095 assessed as fractional inhibitory concentration incubated for 24 hrs in presence of ciprofloxacin by CLSI based broth dilution method; type: functional
[41] = tested on: RAW264.7; experiment: Antiinflammatory activity in mouse RAW264.7 cells assessed as neutralization of LPS binding by measuring LPS-FITC aggregation at 10 uM pretreated with LPS for 1 hr followed by compound addition and measured after 1 hr by flowcytometry analysis (reference value: 48.12 %); type: functional
[42] = Antibacterial activity against multidrug-resistant Pseudomonas aeruginosa CCARM 2095 assessed as reduction in bacterial growth incubated for 24 hrs in presence of ciprofloxacin by CLSI based broth dilution method; type: functional; conditions: read-out: MIC100

## CC[C@H](C)[C@H](NC(=O)[C@H](CCCCN)NC(=O)[C@H](CCC(=O)O)NC(=O)[C@H](CCCCN)NC(=O)[C@H](CO)NC(=O)[C@H](CCCCN)NC(=O)[C@H](CCCNC(=N)N)NC(=O)[C@H](Cc1ccccc1)NC(=O)[C@H](Cc1ccccc1)NC(=O)[C@H](CC(=O)O)NC(=O)CNC(=O)[C@H](CC(C)C)NC(=O)[C@@H](N)CC(C)C)C(=O)NCC(=O)N[C@@H](CCCCN)C(=O)N[C@@H](CCC(=O)O)C(=O)N[C@@H](Cc1ccccc1)C(=O)N[C@@H](CCCCN)C(=O)N[C@@H](CCCNC(=N)N)C(=O)N[C@H](C(=O)N[C@H](C(=O)N[C@@H](CCC(N)=O)C(=O)N[C@@H](CCCNC(=N)N)C(=O)N[C@H](C(=O)N[C@@H](CCCCN)C(=O)N[C@@H](CC(=O)O)C(=O)N[C@@H](Cc1ccccc1)C(=O)N[C@@H](CC(C)C)C(=O)N[C@@H](CCCNC(=N)N)C(=O)N[C@@H](CC(N)=O)C(=O)N[C@@H](CC(C)C)C(=O)N[C@H](C(=O)N1CCC[C@H]1C(=O)N[C@@H](CCCNC(=N)N)C(=O)N[C@H](C(=O)N[C@@H](CCC(=O)O)C(=O)N[C@@H](CO)C(=O)O)[C@@H](C)O)C(C)C)[C@@H](C)CC)C(C)C)[C@@H](C)CC [CATHELICIDIN]
[1]
  Activity: 68%
[2]
  MIC: 8 µM
[3]
  MIC: 8 µM
[4]
  fractional inhibitory concentration index (FICI): 1.25
[5]
  Activity: Active
[6]
  FIC: 0.5
[7]
  MIC: 64 µM
[8]
  MIC: 16 µM
[9]
  MIC: 8 µM
[10]
  fractional inhibitory concentration index (FICI): 1
[11]
  MIC: 16 µM
[12]
  MIC: 8 µM
[13]
  MIC: 8 µM
[14]
  MIC: 16 µM
[15]
  fractional inhibitory concentration index (FICI): 0.75
[16]
  MIC: 128 µM
[17]
  FIC: 0.25
[18]
  inhibition: Dose-dependent effect
[19]
  Activity: 25.44%
[20]
  MIC: 16 µM
[21]
  MIC: 16 µM
[22]
  FIC: 0.5
[23]
  fractional inhibitory concentration index (FICI): 0.75
[24]
  Activity: Active
[25]
  MIC: 16 µM
[26]
  MIC: 256 µM
[27]
  fractional inhibitory concentration index (FICI): 0.75
[28]
  Activity: 70.1%
[29]
  FIC: 0.25
[30]
  inhibition: Active
[31]
  fractional inhibitory concentration index (FICI): 1
[32]
  MIC: 128 µM
[33]
  MIC: 8 µM
[34]
  Activity: Active
[35]
  MIC: 16 µM
[36]
  MIC: 8 µM
[37]
  MIC: 512 µM
[38]
  FIC: 0.5
[39]
  inhibition: Active
[40]
  FIC: 0.25
[41]
  Activity: 13.98%
[42]
  MIC: 128 µM
